Like-named read-outs stand apart in the source and are kept apart here.
Legend:
[1] = test system: KYSE-70 esophageal cancer cell line; assay: Cell growth inhibition of KYSE-70 (Sulforhodamine B); assay type: cell-based; conditions: KYSE-70, 72 hours, read-out: KYSE70 GI50
In short: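 KYSE-70 cells (YES1-amplified) in RPMI-1640 with 10% FBS were seeded 24 h before treatment with compound at 0.0046–10 µM final. After 72 h, cells were TCA-fixed and stained with sulforhodamine B, with absorbance read at 510 nm. GI50 was derived with a time-zero plate set to 0% and the vehicle control to 100%, in duplicate tests.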

TEAD (Homo sapiens) = target: T1, TEAD (Homo sapiens); assay: TEAD inhibition, KYSE-70 TEAD luciferase reporter cell line; assay type: cell-based; conditions: KYSE-70 TEAD luciferase reporter cells, 24 hours, normalized by cell viability; read-out: KYSE70 TEAD IC50
T1 construct: lentiviral TEAD luciferase reporter read-out
T1 sequence (P07947 whole entry): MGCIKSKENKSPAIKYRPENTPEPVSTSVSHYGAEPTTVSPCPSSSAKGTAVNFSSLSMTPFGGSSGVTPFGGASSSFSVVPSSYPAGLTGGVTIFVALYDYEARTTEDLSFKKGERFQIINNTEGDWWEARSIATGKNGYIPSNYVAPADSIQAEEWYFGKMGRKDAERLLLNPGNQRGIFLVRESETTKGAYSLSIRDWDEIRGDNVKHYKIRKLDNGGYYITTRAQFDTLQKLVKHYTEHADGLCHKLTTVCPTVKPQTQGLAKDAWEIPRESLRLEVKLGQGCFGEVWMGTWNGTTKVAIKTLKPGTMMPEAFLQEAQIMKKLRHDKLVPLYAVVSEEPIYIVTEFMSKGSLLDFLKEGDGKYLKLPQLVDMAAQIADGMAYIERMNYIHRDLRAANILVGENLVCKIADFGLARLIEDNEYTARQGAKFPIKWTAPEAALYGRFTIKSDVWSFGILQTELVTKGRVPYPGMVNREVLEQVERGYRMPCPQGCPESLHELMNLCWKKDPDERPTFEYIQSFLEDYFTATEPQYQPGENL
Method: To evaluate the inhibitory activity on TEAD activity in KYSE-70 cells in which YES1 is overexpressed, the following experiment was performed.
TEAD luciferase reporter lentivirus (BPS Bioscience; TEAD luciferase reporter lentivirus) was co-cultured with KYSE-70 cell line for 48 hours, and then 1 μg/ml puromycin (Invitrogen) was added to the culture to induce cell death only in cells that were not infected with the virus, thereby generating a KYSE-70 cell line into which the TEAD luciferase reporter was introduced. The KYSE-70 TEAD luciferase reporter cell line was cultured in RPMI-1640 (Capricorn) supplemented with 10% FBS (Cellgro). The cells were seeded 24 hours prior to compound treatment into two 96-well F-bottom clear plates (Greiner) and two white clear bottom 96-well plates (Greiner), at 20,000 cells in 180 μL medium per well.
The 10 mM compound was diluted 100-fold in medium to prepare a 100 μM compound, then placed in a 96-well plate and further 3-fold diluted in medium to prepare a compound plate with concentrations ranging from 0.046 μM to 100 μM. 20 μL of each compound from the drug plate was injected into the cell-seeded plates to prepare the final concentrations 0.0046 μM to 10 μM. For TEAD activity measurement, 24 hours after compound treatment on the white clear bottom 96-well plate, 100 μL of medium was removed from each well, and 100 μL of One-Step™ Luciferase Assay System solution was added. After reacting at room temperature for 15 minutes, luminescence intensity was measured using a microplate reader (VICTOR X3, PerkinElmer). Since TEAD activity values needed to be normalized by cell viability, a cell viability assay was also performed. For measuring cell viability, 24 hours after compound treatment on the 96-well F-bottom clear plate, 50 μL of 33% trichloroacetic acid was added to each well and was fixed by incubating at 4° C. for 1 hour. After that, the plate was washed 5 times with sterile water, and 100 μL of 0.04% Sulforhodamine B solution in 1% acetic acid was added to react for 1 hour to stain the cells. After staining, the plates were washed 4 times with 1% acetic acid solution and completely dried. Then the Sulforhodamine B bound to cellular proteins was completely dissolved with 10 mM Tris base solution (pH 10.5). The absorbance was measured at a wavelength of 510 nm using a microplate reader (TECAN, sunrise microplate reader). The TEAD activity value and cell viability value were normalized, and a graph was drawn using the GraphPad Prism version 5.0 program, and the IC50 value was calculated.

YES1 kinase = YES1 kinase (Homo sapiens, UniProt P07947); assay: YES1 kinase inhibition, ADP Glo assay (Promega); assay type: biochemical; conditions: for YES1 enzyme, % inhibition, 10 nM / inhibition at 0.01 µM: compound 10 nM; for YES1 enzyme, % inhibition, 100 nM / inhibition at 0.1 µM: compound 100 nM; for inhibition at 0.01 µM: read-out: YES1 enzyme, % inhibition, 10 nM; for inhibition at 0.1 µM: read-out: YES1 enzyme, % inhibition, 100 nM; for YES1 kinase inhibition at 1 nM (in words) / inhibition at 0.001 µM: compound 1 nM; for inhibition at 0.001 µM: read-out: YES1 enzyme, % inhibition, 1 nM; for IC50: class symbols, read-out: YES1 enzyme, IC50
Sequence of YES1 kinase (P07947 whole entry): as above
In short: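 ADP-Glo luminescence after a 40 min room-temperature reaction of YES1 with ATP and substrate (buffer with MnCl2 and DTT; 10 min compound preincubation) was used as readout. Percent inhibition at 1, 10 and 100 nM compound was calculated relative to negative control after background subtraction, and IC50 values derived.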

GI50 [1] [nM] | GI50 ([1]; Homo sapiens) [nM] | inhibition at 0.01 µM (YES1 kinase) [%] | inhibition at 0.1 µM (YES1 kinase) [%] | Compound | IC50 (TEAD (Homo sapiens)) [nM] | further results
– | 100 to 1000 | 63 | – | COc1cc(-c2cc(N[C@H]3CC[C@H](N)C3)n3ncnc(N)c23)ccc1NC(=O)OC(C)(C)C [Example 116, tert-butyl (4-(4-amino-7-(((1S,3S)-3-aminocyclopentyl)amino)pyrrolo[2,1-f][1,2,4]triazin-5-yl)-2-methoxyphenyl)carbamate] | – | YES1 kinase inhibition at 1 nM (in words) (YES1 kinase): could be inhibited even at a low concentration of 1 nM; inhibition at 0.001 µM (YES1 kinase): 30%
– | 100 to 1000 | 60 | – | COc1cc(-c2cc(N[C@H]3CC[C@H](N(C)C)C3)n3ncnc(N)c23)ccc1NC(=O)OC(C)(C)C [Example 112, tert-butyl (4-(4-amino-7-(((1S,3S)-3-(dimethylamino)cyclopentyl)amino)pyrrolo[2,1-f][1,2,4]triazin-5-yl)-2-methoxyphenyl)carbamate] | – | YES1 kinase inhibition at 1 nM (in words) (YES1 kinase): could be inhibited even at a low concentration of 1 nM; inhibition at 0.001 µM (YES1 kinase): 29%
– | 100 to 1000 | 52 | 77 | COc1cc(-c2cc(N3CC[C@@H](N)[C@@H](F)C3)n3ncnc(N)c23)ccc1NC(=O)OC(C)(C)C [Example 46, tert-butyl (4-(4-amino-7-((3S,4R)-4-amino-3-fluoropiperidin-1-yl)pyrrolo[2,1-f][1,2,4]triazin-5-yl)-2-methoxyphenyl)carbamate] | – | –
– | 100 to 1000 | – | – | COc1cc(-c2cc(N3CCC(N)CC3)n3ncnc(N)c23)ccc1NC(=O)c1ccco1 [Example 137, N-(4-(4-amino-7-(4-aminopiperidin-1-yl)pyrrolo[2,1-f][1,2,4]triazin-5-yl)-2-methoxyphenyl)furan-2-carboxamide] | – | IC50 (YES1 kinase): ≤ 100 nM
– | ≤ 100 | 65 | 90 | COc1cc(-c2cc(CCN3CCC(N(C)C)CC3)n3ncnc(N)c23)ccc1NC(=O)OC(C)(C)C [Example 98, tert-butyl (4-(4-amino-7-(2-(4-(dimethylamino)piperidin-1-yl)ethyl)pyrrolo[2,1-f][1,2,4]triazin-5-yl)-2-methoxyphenyl)carbamate] | – | –
– | 100 to 1000 | 28 | 76 | COc1cc(-c2cc(N3CCC4NCCC4C3)n3ncnc(N)c23)ccc1NC(=O)OC(C)(C)C (centres unmarked) [Example 25, tert-butyl (4-(4-amino-7-(octahydro-5H-pyrrolo[3,2-c]pyridin-5-yl)pyrrolo[2,1-f][1,2,4]triazin-5-yl)-2-methoxyphenyl)carbamate] | – | –
– | 100 to 1000 | 60 | 90 | COc1cc(-c2cc(N3CCC4(CC3)CNC(=O)C4)n3ncnc(N)c23)ccc1NC(=O)OC(C)(C)C [Example 52, tert-butyl (4-(4-amino-7-(3-oxo-2,8-diazaspiro[4.5]decan-8-yl)pyrrolo[2,1-f][1,2,4]triazin-5-yl)-2-methoxyphenyl)carbamate] | – | IC50 (YES1 kinase): ≤ 100 nM
– | > 10000 | – | – | COc1cc(-c2cc(N3CCC(N)CC3)n3ncnc(N)c23)ccc1NC(=O)c1ccoc1 [Example 138, N-(4-(4-amino-7-(4-aminopiperidin-1-yl)pyrrolo[2,1-f][1,2,4]triazin-5-yl)-2-methoxyphenyl)furan-3-carboxamide] | – | IC50 (YES1 kinase): ≤ 100 nM
– | 100 to 1000 | 56 | 80 | COc1cc(-c2cc(N3CCC(CN)CC3)n3ncnc(N)c23)ccc1NC(=O)OC(C)(C)C [Example 59, tert-butyl (4-(4-amino-7-(4-(aminomethyl)piperidin-1-yl)pyrrolo[2,1-f][1,2,4]triazin-5-yl)-2-methoxyphenyl)carbamate] | – | IC50 (YES1 kinase): ≤ 100 nM
– | 1000 to 10000 | 5 | 43 | COc1cc(-c2cc(N3CCC[C@@H](CN(C)C)C3)n3ncnc(N)c23)ccc1NC(=O)OC(C)(C)C [Example 40, tert-butyl (S)-(4-(4-amino-7-(3-((dimethylamino)methyl)piperidin-1-yl)pyrrolo[2,1-f][1,2,4]triazin-5-yl)-2-methoxyphenyl)carbamate] | – | –

Continued, compound first:

Compound | GI50 [1] [nM] | GI50 ([1]; Homo sapiens) [nM] | inhibition at 0.01 µM (YES1 kinase) [%] | inhibition at 0.1 µM (YES1 kinase) [%] | IC50 (TEAD (Homo sapiens)) [nM] | further results
tert-butyl (4-(4-amino-7-(4-(dimethylamino)-3-methoxyphenyl)pyrrolo[2,1-f][1,2,4]triazin-5-yl)-2-methoxyphenyl)carbamate [Example 5] | 100 to 1000 | – | – | – | 100 to 1000 | YES1 enzyme, % inhibition, 10 nM (YES1 kinase): 38%; YES1 enzyme, % inhibition, 100 nM (YES1 kinase): 68%
tert-butyl (4-(4-amino-7-(4-(tert-butyl)piperazin-1-yl)pyrrolo[2,1-f][1,2,4]triazin-5-yl)-2-methoxyphenyl)carbamate [Example 16] | 1000 to 10000 | – | – | – | 1000 to 10000 | YES1 enzyme, % inhibition, 10 nM (YES1 kinase): 30%; YES1 enzyme, % inhibition, 100 nM (YES1 kinase): 36%
tert-butyl (4-(4-amino-7-(6-(dimethylamino)pyridin-3-yl)pyrrolo[2,1-f][1,2,4]triazin-5-yl)-2-methoxyphenyl)carbamate [Example 6] | 1000 to 10000 | – | – | – | ≤ 100 | YES1 enzyme, % inhibition, 10 nM (YES1 kinase): 41%; YES1 enzyme, % inhibition, 100 nM (YES1 kinase): 46%
COc1cc(-c2cc(-c3ccc(N(C)C)c(F)c3)n3ncnc(N)c23)ccc1NC(=O)OC(C)(C)C [Example 4, tert-butyl (4-(4-amino-7-(4-(dimethylamino)-3-fluorophenyl)pyrrolo[2,1-f][1,2,4]triazin-5-yl)-2-methoxyphenyl)carbamate] | – | 1000 to 10000 | 31 | 29 | – | –
COc1cc(-c2cc(-c3ccc(N(C)C)cc3)n3ncnc(N)c23)ccc1NC(=O)OC(C)(C)C [Example 1, tert-butyl (4-(4-amino-7-(4-(dimethylamino)phenyl)pyrrolo[2,1-f][1,2,4]triazin-5-yl)-2-methoxyphenyl)carbamate] | – | 1000 to 10000 | 17 | 31 | – | –
COc1cc(-c2cc(-c3ccc(N(C)C)cc3C)n3ncnc(N)c23)ccc1NC(=O)OC(C)(C)C [Example 2, tert-butyl (4-(4-amino-7-(4-(dimethylamino)-2-methylphenyl)pyrrolo[2,1-f][1,2,4]triazin-5-yl)-2-methoxyphenyl)carbamate] | – | > 10000 | 21 | 28 | – | –
tert-butyl (4-(4-amino-7-(4-(methylamino)piperidin-1-yl)pyrrolo[2,1-f][1,2,4]triazin-5-yl)-2-methoxyphenyl)carbamate [Example 58] | 100 to 1000 | – | – | – | ≤ 100 | IC50 (YES1 kinase): ≤ 100 nM
COc1cc(-c2cc(-c3ccc4c(c3)oc(=O)n4C)n3ncnc(N)c23)ccc1NC(=O)OC(C)(C)C [Example 9, tert-butyl (4-(4-amino-7-(3-methyl-2-oxo-2,3-dihydrobenzo[d]oxazol-6-yl)pyrrolo[2,1-f][1,2,4]triazin-5-yl)-2-methoxyphenyl)carbamate] | – | 1000 to 10000 | 39 | 57 | – | –
tert-butyl (4-(4-amino-7-(4-(dimethylamino)-4-methylpiperidin-1-yl)pyrrolo[2,1-f][1,2,4]triazin-5-yl)-2-methoxyphenyl)carbamate [Example 13] | ≤ 100 | – | – | – | ≤ 100 | YES1 enzyme, % inhibition, 10 nM (YES1 kinase): 77%; YES1 enzyme, % inhibition, 100 nM (YES1 kinase): 93%
tert-butyl (4-(4-amino-7-(4-aminopiperidin-1-yl)-6-methylpyrrolo[2,1-f][1,2,4]triazin-5-yl)-2-methoxyphenyl)carbamate [Example 78] | ≤ 100 | – | – | – | ≤ 100 | –

Source: patent publication US20260297095A1, “NOVEL PYRROLOTRIAZINE DERIVATIVE AND USE THEREOF” (Pelemed Co., Ltd., priority 2024, published 2026)
